Source: the NIST ThermoML archive (doi:10.1016/j.jct.2007.06.016)
± gives the expanded uncertainty stated by the source.

Columns and labels:
[1] = refractive index (Na D-line) (dimensionless); conditions: 298.15 K; 101.33 kPa; Liquid; Standard Abbe refractometry
[2] = 298.15 K, 101.33 kPa, Liquid

refractive index [1] | mass density [2] [kg/m3] | Structure (SMILES) | mass density ([2]; Vibrating tube method) [kg/m3]
1.52581 ± 0.0007 | 1058.5 ± 0.55 | c1ccsc1 [thiophene] | 
1.42403 ± 0.00068 | 773.76 ± 0.52 | C1CCCCC1 [cyclohexane] | 
1.42011 ± 0.0007 | 745.32 ± 0.91 | CCCCCCCCCCCC [dodecane] | 

Structure (SMILES) | refractive index [1] | mass density [2] [kg/m3] | mass density ([2]; Vibrating tube method) [kg/m3]
CCCCCCCCn1cc[n+](C)c1.O=S(=O)([N-]S(=O)(=O)C(F)(F)F)C(F)(F)F | 1.43331 ± 0.0012 |  | 1320.76 ± 9.5
